In ChEMBL document CHEMBL5050827, “ATF6 inhibitors and uses thereof” (2020):

Experiments:
[1] = test system: U2OS; test: Inhibition of ATF6 activity in human U2OS cells at 1 uM in presence of ER stress inducer thapsigargin (Tg) measured by TRE-luciferase reporter assay relative to control; type: cell-based
[2] = Inhibition of ATF6 activity in human U2OS cells in presence of ER stress inducer thapsigargin (Tg) measured by TRE-luciferase reporter assay; type: cell-based
[3] = Clearance in Balb/C mouse plasma at 10 mg/kg, po by LC-MS analysis; type: ADME, organism-based
[4] = AUC (infinity) in Balb/C mouse plasma at 10 mg/kg, po by LC-MS analysis; type: ADME, organism-based; design: route oral, time infinity, dose 10 mg/kg
[5] = AUC (last) in Balb/C mouse plasma at 10 mg/kg, po by LC-MS analysis; type: ADME, organism-based; design: time 0 - last, route oral, dose 10 mg/kg
[6] = Half-life in Balb/C mouse plasma at 10 mg/kg, po by LC-MS analysis; type: ADME, organism-based

SMILES	inhibition [1] [%]	IC50 [2]	other results
C[C@@H](c1ccc(C(F)(F)F)cc1C(F)(F)F)n1cc(NC(=O)c2nnc(-c3ccco3)s2)cn1	25		
C[C@H](c1ccc(C(F)(F)F)cc1C(F)(F)F)n1cc(NC(=O)c2cn(-c3ccccn3)nn2)cn1	25		
O=C(Nc1cnn(Cc2ccccc2)c1)c1cc(-c2ccco2)on1	< 25	> 10 µM	
C[C@H](c1ccc(C(F)(F)F)cc1C(F)(F)F)n1cc(NC(=O)c2cc(-c3ccccn3)on2)cn1	< 25		
Cc1nn([C@H](C)c2ccc(C(F)(F)F)cc2C(F)(F)F)cc1NC(=O)c1cc(-c2ccccn2)on1	25		
Cc1cccc(-c2cc(C(=O)Nc3cnn(Cc4ccc(C(F)(F)F)cc4C(F)(F)F)c3)no2)n1	25		
C[C@H](c1ccc(C(F)(F)F)cc1C(F)(F)F)n1cc(NC(=O)c2cc(-c3ccccn3)no2)cn1			CL/F [3]: 0.221 L/h/kg
C[C@@H](c1ccc(C(F)(F)F)cc1C(F)(F)F)n1cc(NC(=O)c2cc(-c3ccco3)on2)cn1			CL/F [3]: 16 L/h/kg
C[C@@H](c1ccc(C(F)(F)F)cc1C(F)(F)F)n1cc(NC(=O)c2cc(-c3ccccn3)on2)cn1	> 50		CL/F [3]: 0.31 L/h/kg
O=C(Nc1cnn(Cc2ccc(C(F)(F)F)cc2C(F)(F)F)c1)c1cc(-c2ccco2)on1	> 50	< 1 µM	CL/F [3]: 231 L/h/kg; AUC(0-inf) [4]: 0.0433 µg·h/mL; AUC(0-t) [5]: 0.0391 µg·h/mL; half-life [6]: 2.49 h
O=C(Nc1cnn(Cc2ccc(C(F)(F)F)cc2C(F)(F)F)c1)c1cc(-c2cccs2)on1	25		
O=C(Nc1cnn(Cc2ccc(C(F)(F)F)cc2C(F)(F)F)c1)c1cnc(-c2ccccn2)s1		in the range around 1 µM	
CN(C(=O)c1cc(-c2ccccn2)on1)c1cnn(Cc2ccc(C(F)(F)F)cc2C(F)(F)F)c1	25	in the range around 1 µM	
CC(c1ccc(C(F)(F)F)cc1C(F)(F)F)n1cc(NC(=O)c2cnc(-c3ccccn3)s2)cn1 (stereo not given)		in the range around 1 µM	
C[C@H](c1ccc(C(F)(F)F)cc1C(F)(F)F)n1cc(NC(=O)c2cnc(-c3ccccn3)s2)cn1	25	in the range around 1 µM	
Cc1c(NC(=O)c2cc(-c3ccccn3)on2)cnn1Cc1ccc(C(F)(F)F)cc1C(F)(F)F	25	in the range around 1 µM	
C[C@H](c1ccc(C(F)(F)F)cc1C(F)(F)F)n1cc(NC(=O)c2nnc(-c3ccccn3)s2)cn1			CL/F [3]: 0.161 L/h/kg

SMILES	inhibition [1] [%]	IC50 [2]	other results
O=C(Nc1cnn(Cc2ccc(C(F)(F)F)cc2C(F)(F)F)c1)c1cc(-c2ccncc2)on1		in the range around 1 µM	
Cc1c(NC(=O)c2cc(-c3ccccn3)on2)cnn1[C@H](C)c1ccc(C(F)(F)F)cc1C(F)(F)F	25	in the range around 1 µM	
C[C@H](c1ccc(C(F)(F)F)cc1C(F)(F)F)n1cc(NC(=O)c2nnc(-c3ccncn3)s2)cn1	25		
O=C(Nc1cnn(Cc2ccc(C(F)(F)F)cc2)c1)c1cc(-c2ccco2)on1	< 25	> 10 µM	
O=C(Nc1cnn(Cc2ccc(C(F)(F)F)cc2C(F)(F)F)c1)c1cc(-c2ccccn2)on1			CL/F [3]: 0.971 L/h/kg
C[C@H](c1ccc(C(F)(F)F)cc1C(F)(F)F)n1cc(NC(=O)c2cc(-c3ccco3)on2)cn1	< 25		
Cc1ccc(-c2cc(C(=O)Nc3cnn(Cc4ccc(C(F)(F)F)cc4C(F)(F)F)c3)no2)o1		in the range around 1 µM	
C[C@H](c1ccc(F)cc1C(F)(F)F)n1cc(NC(=O)c2cc(-c3ccccn3)on2)cn1	25	in the range around 1 µM	
O=C(Nc1cnn(C2CCc3ccccc32)c1)c1nnc(-c2ccco2)o1 (stereo not given)	< 25	> 10 µM	
Cc1cccc(-c2cc(C(=O)Nc3cnn([C@H](C)c4ccc(C(F)(F)F)cc4C(F)(F)F)c3)no2)n1	25		
CC(c1ccc(C(F)(F)F)cc1C(F)(F)F)n1cc(NC(=O)c2cc(-c3cccs3)on2)cn1 (stereo not given)		in the range around 1 µM	
C[C@@H](c1ccc(C(F)(F)F)cc1C(F)(F)F)n1cc(NC(=O)c2nnc(-c3ccccn3)s2)cn1	< 25	in the range around 1 µM	
C[C@H](c1ccc(C(F)(F)F)cc1C(F)(F)F)n1cc(NC(=O)c2cc(-c3cnccn3)on2)cn1			CL/F [3]: 0.0934 L/h/kg
C[C@@H](c1ccc(C(F)(F)F)cc1C(F)(F)F)n1cc(NC(=O)c2coc(-c3ccccn3)n2)cn1	< 25	> 10 µM	
C[C@@H](c1ccc(C(F)(F)F)cc1C(F)(F)F)n1cc(NC(=O)c2cnc(-c3ccccn3)o2)cn1	< 25	> 10 µM	
CC(c1ccc(C(F)(F)F)cc1C(F)(F)F)n1cc(NC(=O)c2cc(-c3ccccn3)nn2C)cn1 (stereo not given)	25		
